How the values were obtained:
Format in all cases: cell-based
Settings in all cases: 0.0625 μg/ml, 48 hours, control set as 1-fold, average of three experiments
TPH1 gene = assay: qPCR expression of TPH1 gene in SHSY5Y cells
Description: (§1) SHSY5Y cells were seeded in a 6-well plate (1×10^5 cells/well) and then cultured for 24 hours. Thereafter, cells were divided into the control group and experimental group and were separately cultured in the following medium for 48 hours: • 1. Control group: DMEM medium; • 2. Experimental group: a medium the same as that of the control group, but additionally added with 0.0625 μg/ml of the compound of formula (I).
(§2) Thereafter, cells of the above groups were harvested and subjected to an RNA extraction with an RNA Extract Kit. The RNA thus obtained was then transcribed into cDNA by using a Reverse Transcriptase. Thereafter, the cDNA was subjected to a quantitative polymerase chain reaction (qPCR) by using a Step One Plus system and a KAPA SYBR FAST qPCR kit to determine the expression levels of genes related to melatonin (including TPH1, DDC, AANAT and ASMTL) in the cells of each group.
(§3) The above experimental steps were repeated three times, and then the results of the three experiments were averaged. Thereafter, the result of the control group was used as a basis (i.e., the gene expression level of the control group was set as 1-fold) to calculate the relative gene expression level of the experimental group.

DDC gene = assay: qPCR expression of DDC gene in SHSY5Y cells
Description: as §1, §2, §3

AANAT gene = assay: qPCR expression of AANAT gene in SHSY5Y cells
Description: as §1, §2, §3

ASMTL gene = assay: qPCR expression of ASMTL gene in SHSY5Y cells
Description: as §1, §2, §3

O=C1C(O)=Cc2cccc3ccc(-c4ccc(O)cc4)c1c23 [compound of formula (I), hydroxyanigorufone]
significantly increased: expression level of TPH1 gene relative to control group (TPH1 gene) | expression level of DDC gene relative to control group (DDC gene) | expression level of AANAT gene relative to control group (AANAT gene) | expression level of ASMTL gene relative to control group (ASMTL gene)

— patent US10646455B2, “Uses of hydroxyanigorufone” (TCI CO., LTD, priority 2017, dated 2020)
